Target: glucose oxidase (GOx) (Aspergillus niger, UniProt P13006)
Experiment: HRP-coupled chromogenic assay of H2O2
Format: biochemical
Conditions: free enzyme; O2 co-substrate

Sequence of glucose oxidase (GOx) (P13006 17-605): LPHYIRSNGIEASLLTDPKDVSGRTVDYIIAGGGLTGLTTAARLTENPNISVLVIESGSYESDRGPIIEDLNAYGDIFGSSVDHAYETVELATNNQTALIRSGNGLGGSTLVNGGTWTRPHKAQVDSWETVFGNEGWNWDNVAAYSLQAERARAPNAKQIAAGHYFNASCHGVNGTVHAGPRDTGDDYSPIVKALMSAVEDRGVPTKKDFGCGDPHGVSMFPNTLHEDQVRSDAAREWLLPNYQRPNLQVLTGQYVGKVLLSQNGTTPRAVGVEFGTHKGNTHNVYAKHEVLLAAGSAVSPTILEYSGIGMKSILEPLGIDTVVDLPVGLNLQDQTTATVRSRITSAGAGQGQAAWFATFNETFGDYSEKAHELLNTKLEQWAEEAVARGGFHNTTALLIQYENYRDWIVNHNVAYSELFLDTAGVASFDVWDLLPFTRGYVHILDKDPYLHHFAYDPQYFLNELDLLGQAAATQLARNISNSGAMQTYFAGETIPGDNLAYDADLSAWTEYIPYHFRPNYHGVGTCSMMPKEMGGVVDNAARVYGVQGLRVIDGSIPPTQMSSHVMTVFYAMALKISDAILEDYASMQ

OC[C@H]1OC(O)[C@H](O)[C@@H](O)[C@@H]1O (stereo partly shown) [glucose]
KM: glucose diffuses in and one of the products, namely hydrogen peroxide, must diffuse out

— article PMC5883864 (Chemical Science, 2017)
